According to patent US12612420B2, “Arginase inhibitors and methods of use thereof” (Molecure S.A., priority 2020, dated 2026):
Structures can show the parent of a compound that is named as a salt.

Assays:
[1] = target: T1, recombinant human arginase 1 (hARG1) (Homo sapiens, UniProt P05089); test: Human arginase inhibition assay (colorimetric urea detection), arginase 1; assay type: biochemical; settings: IC50 class; hydrochloride salts; 1 h at 37° C., pH 7.4, 10 mM L-arginine, 200 μM MnCl2; read-out: Activity Class (ARG I)
T1 construct: made in house; host or cells: E. coli
T1 sequence (P05089 1-322): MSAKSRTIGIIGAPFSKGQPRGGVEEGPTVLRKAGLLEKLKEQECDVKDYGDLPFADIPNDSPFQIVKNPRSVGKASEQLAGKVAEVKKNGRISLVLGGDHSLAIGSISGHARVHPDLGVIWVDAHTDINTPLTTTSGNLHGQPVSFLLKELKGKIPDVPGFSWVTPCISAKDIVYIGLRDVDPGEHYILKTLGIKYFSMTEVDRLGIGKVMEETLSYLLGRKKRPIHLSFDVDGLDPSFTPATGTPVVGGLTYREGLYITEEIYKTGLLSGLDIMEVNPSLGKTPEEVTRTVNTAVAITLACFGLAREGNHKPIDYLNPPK
Procedure: (§1) Human Arginase Inhibition Assay
(§2) The inhibitory activities of the compounds of the invention were assessed using recombinant human arginases 1 and 2. Both enzymes were biosynthesized using a prokaryotic expression system (E. coli) and purified by fast protein liquid chromatography (FPLC). The compounds were screened in 96-well plates at the total reaction volume of 100 μL. Briefly, recombinant enzymes were incubated with the tested compounds for 1 h at 37° C. in the reaction buffer (100 mM sodium phosphate buffer, 130 mM NaCl, 1 mg/mL BSA, pH 7.4) containing substrate (L-arginine hydrochloride, 10 mM for hARG1 and 20 mM for hARG2) and cofactor (200 μM MnCl2). The assay is based on the detection of urea, which is generated during the conversion of L-arginine into L-omithine catalyzed by ARG1 or ARG2 (Baggio et al. J Pharmacol. Exp. Ther. 1999, 290, 1409-1416). The colorimetrically detectable product was developed by adding a mixture of reagent A (4 mM oPA, 50 mM boric acid, 1 M sulfuric acid, 0.03% Brij-35) and reagent B (4 mM NED, 50 mM boric acid, 1 M sulfuric acid, 0.03% Brij-35) in equal proportions. The absorbance for each well was measured at 515 nm and the enzyme inhibition was calculated. The urea production in the absence of any tested compound was considered as maximal enzyme activity. The absorbance at the absence of arginase (background) was subtracted from all the values. The normalized values were analyzed using GraphPad Prism 7.0 software by plotting inhibition curves and determining the IC50 values.
(§3) The inhibitory activity classes of the hydrochloride salts of the exemplary compounds according to the invention are presented in Table 1

[2] = target: T2, recombinant human arginase 2 (hARG2) (Homo sapiens, UniProt P78540); test: Human arginase inhibition assay (colorimetric urea detection), arginase 2; assay type: biochemical; settings: IC50 class; hydrochloride salts; 1 h at 37° C., pH 7.4, 20 mM L-arginine, 200 μM MnCl2; read-out: Activity Class (ARG II)
T2 construct: made in house; host or cells: E. coli
T2 sequence (P78540 23-354): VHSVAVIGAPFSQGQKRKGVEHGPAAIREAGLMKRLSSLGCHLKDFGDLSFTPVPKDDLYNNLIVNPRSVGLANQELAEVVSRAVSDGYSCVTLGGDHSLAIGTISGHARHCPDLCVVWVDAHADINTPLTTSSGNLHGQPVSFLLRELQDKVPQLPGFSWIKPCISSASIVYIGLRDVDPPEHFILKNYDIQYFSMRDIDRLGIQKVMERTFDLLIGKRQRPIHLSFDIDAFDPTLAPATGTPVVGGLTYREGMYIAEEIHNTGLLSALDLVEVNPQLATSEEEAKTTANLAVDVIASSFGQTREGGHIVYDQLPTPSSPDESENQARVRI
Procedure: as §1, §2, §3

[3] = target: T3, intracellular arginase in macrophages isolated from murine bone marrow (BMDM) (Mus musculus, UniProt Q61176); test: Cell-based assay: intracellular arginase in bone marrow derived macrophages (BMDM), urea in culture medium; design: species or system murine (C57BL/6 mice); settings: IC50 class; M2-polarised murine BMDM (M-CSF, TGF-β, IL-4), urea in medium after 24 hours
T3 construct: endogenous in cells; host or cells: primary bone-marrow-derived macrophages from C57BL/6 mice, cultured with M-CSF, TGF-β and IL-4
T3 sequence (Q61176 1-323): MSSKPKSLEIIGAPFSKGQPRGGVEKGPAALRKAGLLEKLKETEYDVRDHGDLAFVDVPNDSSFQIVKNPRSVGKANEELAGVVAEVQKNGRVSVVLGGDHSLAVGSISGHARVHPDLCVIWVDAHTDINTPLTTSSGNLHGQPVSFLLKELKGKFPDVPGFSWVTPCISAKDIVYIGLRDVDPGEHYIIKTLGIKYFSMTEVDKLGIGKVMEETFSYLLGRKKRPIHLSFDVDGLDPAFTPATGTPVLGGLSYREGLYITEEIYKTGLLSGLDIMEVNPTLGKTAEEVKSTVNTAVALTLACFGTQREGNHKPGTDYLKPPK
Procedure: To illustrate the lower cellular activity of the compounds according to the invention versus arginase inhibitors disclosed in U.S. Ser. No. 10/391,077 B2, the selected examples were tested in cell-based assay using murine primary macrophages. Lower intracellular activity observed for the compounds according to the invention may potentially result in lower hepatotoxicity compared to the arginase inhibitors disclosed in U.S. Ser. No. 10/391,077 B2.
Efficacy of Selected Examples Towards Intracellular Arginase in Macrophages Isolated from Murine Bone Marrow—Bone Marrow Derived Macrophages (BMDM)
Murine bone marrow-derived or peritoneal macrophages comprise a convenient in vitro model that enables differentiation of these cells towards M1 or M2 macrophages and further use for the study.
Materials & Methods: The assay was performed according to modified literature protocol (Pineda-Torra I et al., Methods Mol Biol. 2015; 1339:101-9. Mia S et al., Scand J Immunol. 2014 May; 79(5):305-14). The femurs and tibias were isolated from C57BL/6 mice. Bones were cleaned from all attached tissues by using a sterile swab without affecting the bone structure. The sides of the bones were cut off and flush with cold sterile PBS by using 26-G needle S into a 50 mL sterile tube with a cell strainer (Falcon™, Cat. No. U00149), until the bone cavity appeared white. Then, the cells were centrifuged (5 min at 500×G, 4° C.), washed twice with PBS and counted. Cells were plated in Petri dish in density of 1×10^6/mL and cultured in DMEM (Gibco, Cat. No. 31331-029) with 10% FBS, 1% pen-strep and 50 ng/mL M-CSF (PeproTech, Cat. No. 315-02), (37° C., 5% CO2). After five days cells were subcultured into P96 plate (BD, Cat. No. 353072) at the density of 64,000 cells/well in medium supplemented with 50 ng/mL M-CSF, 20 ng/mL TGF-β and 30 ng/mL IL-4 (Biomibo Cat. No. 214-1). One day later exemplary compounds (dissolved in PBS) were added in several different concentrations and 24 hours later the level of urea was measured in the culture medium in each well (Jung D et al., Clin Chem. 1975, 21(8):1136-40). The concentration of urea in the absence of any compound was considered as the maximum enzyme activity. The absorbance of cell culture media (background) was subtracted from all the values.
The IC50 values were calculated using GraphPad Prism 7.0. and assigned into the following classes: A=10-100 μM; and B>100 μM.

SMILES | IC50 [1] [nM] | IC50 [2] [nM] | IC50 [3] [nM]
CC(C)C[C@H](N)C(=O)NC[C@@H]1CC[C@@H](CCB(O)O)C[C@]1(N)C(=O)O [Example 6, (1R,2S,5R)-1-Amino-2-(((S)-2-amino-4-methylpentanamido)methyl)-5-(2-boronoethyl)cyclohexane-1-carboxylic acid dihydrochloride] | 1 to 99 | 100 to 199 | 10000 to 100000
CC(C)(C)[C@H](N)C(=O)NC[C@@H]1CC[C@@H](CCB(O)O)C[C@]1(N)C(=O)O [Example 12, (1R,2S,5R)-1-Amino-2-(((S)-2-amino-3,3-dimethylbutanamido)methyl)-5-(2-boronoethyl)cyclohexane-1-carboxylic acid dihydrochloride] | 1 to 99 | 200 to 299 | > 100000
